Data: PubChem BioAssay (NCI)
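Interpolation was linear, between the two tested concentrations surrounding the appropriate level; five concentrations were tested over 48 hours in 96-well plates. TGI: total growth inhibition.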

Assays:
Assay in all cases: DTP human tumour cell line panel, 48 h
UACC-257 melanoma = tested on: UACC-257 melanoma
MDA-MB-231 breast = tested on: MDA-MB-231 breast
LOX IMVI melanoma = tested on: LOX IMVI melanoma
U251 CNS = tested on: U251 CNS
ACHN renal = tested on: ACHN renal
UO-31 renal = tested on: UO-31 renal
SF-268 CNS = tested on: SF-268 CNS
MCF7 breast = tested on: MCF7 breast
HOP-92 NSCLC = tested on: HOP-92 NSCLC
PC-3 prostate = tested on: PC-3 prostate

Row | Structure (SMILES) | TGI (UACC-257 melanoma) [µM] | TGI (MDA-MB-231 breast) [µM] | TGI (LOX IMVI melanoma) [µM] | TGI (U251 CNS) [µM] | TGI (ACHN renal) [µM] | TGI (UO-31 renal) [µM] | TGI (SF-268 CNS) [µM] | TGI (MCF7 breast) [µM] | TGI (HOP-92 NSCLC) [µM] | TGI (PC-3 prostate) [µM]
1 | CCOC(=O)Cc1cnc(NC(NC(=O)CC)(C(F)(F)F)C(F)(F)F)s1 | > 100 | > 100 | > 100 | > 100 | > 100 | > 100 | > 100 | > 100 |  | 
2 | O=C1CCCCC/C1=C\c1ccccc1 | > 100 | > 100 | > 100 | > 100 | > 100 | > 100 | > 100 |  | > 100 | > 100
3 | COC(=O)[C@@H]1CC(C(CN)c2cn(C(=O)OC(C)(C)C)c3ccccc23)C(=O)N1C(=O)OC(C)(C)C (some centres undefined) | 32.2 | 58.6 | 30.5 | > 100 | > 100 | > 100 | > 100 | 58.5 |  | 80.2
4 | CN1C(=O)CC2CCC(=O)N2c2cccnc21 (centres undefined) | > 100 | > 100 | > 100 | > 100 | > 100 | > 100 | > 100 | > 100 |  | 
5 | O=S(=O)(O)c1ccc2c(N=Nc3ccc(Cl)cc3)c(O)ccc2c1 | > 100 | > 100 | > 100 | > 100 | > 100 | > 100 | > 100 |  | > 100 | > 100
6 | CC1(C)OC[C@@H](O)[C@H](Br)CO1 | > 100 | > 100 | > 100 | > 100 | > 100 | > 100 | > 100 | > 100 |  | > 100
7 | CCOC(=O)c1cc(C2CCN(c3ccccc3)C2=O)c(C(=O)/C=C(/C)N)[nH]1 (centres undefined) | > 100 | > 100 | > 100 | 36.4 | > 100 | > 100 | > 100 | > 100 |  | > 100
8 | O=C(OC/C=C1C=C(OC(=O)c2ccccc2)/C(=N/N(C(=O)c2ccccc2)c2ccccc2)O\1)c1ccccc1 | 19.7 |  | 14.1 | 19.3 | 22.5 | 0.517 | 6.85 |  |  | 
9 | NC1Cc2ccccc2OC1=O (centres undefined) | > 100 | > 100 |  | > 100 | > 100 | > 100 | > 100 | > 100 |  | > 100
10 | Cc1nc2[nH]ncn2c(=O)c1CCO |  | > 10 | > 10 | > 10 | > 10 | > 10 | > 10 | > 10 |  | > 10
11 | COc1ccc(C2C3CCCC(C3=O)C(c3ccc(OC)cc3)N2N=O)cc1 (centres undefined) | 82.7 |  | 32.5 | > 100 |  | > 100 | > 100 | 38.2 | > 100 | 
12 | NC(=Nc1cccc(Cl)c1)c1ccccc1N | > 100 | > 100 | > 100 | > 100 | > 100 | > 100 | > 100 | > 100 |  | > 100
13 | COc1ccccc1NCc1cccc2c(=O)c3ccc(Cl)cc3oc12 | > 100 | > 100 | > 100 | > 100 | > 100 | > 100 |  | > 100 | > 100 | > 100
14 | OC12c3ccccc3C3CCC4(OCCO4)C3C1c1ccccc12 (centres undefined) | > 100 |  | > 100 | > 100 | > 100 | > 100 | > 100 |  |  | 
15 | COc1ccc2[nH]c3c(C)cc([N+](=O)[O-])c(C)c3c2c1 | > 100 |  |  | 97.8 | 63.1 | 71 | > 100 |  | 80.6 | 
16 | COC(=O)/C=C(\S/C=C(/c1ccccc1)N1CCn2c(C(=O)c3ccccc3)c(C(=O)OC)c(C(=O)OC)c21)C(=O)OC | 9.21 | 5.27 | 4.28 | > 10 | > 10 |  |  | 4.33 | 4.73 | > 10
17 | CCCC1(CCC)c2cc(/C=N\O)ccc2-c2ccc(-c3ccc(C(C)(C)C)cc3)cc21 | > 100 | 39.7 | > 100 |  | > 100 | > 100 | > 100 | > 100 | > 100 | > 100
18 | COc1ccc(N2C(=O)C3c4[nH]c5ccc(F)cc5c4C4CCC(C(C)(C)C)CC4C3C2=O)cc1 (centres undefined) |  | > 10 |  | > 10 | > 10 | > 10 | > 10 | > 10 |  | > 10
19 | O=C(Nc1cccc2ccccc12)c1ccccc1 | > 100 | > 100 | > 100 | > 100 | > 100 | > 100 | > 100 | > 100 |  | > 100
20 | COP(=O)(OC)/C(=C/c1cn(C(c2ccccc2)(c2ccccc2)c2ccccc2)cn1)NC=O |  | 33.5 | 32.5 | 35.4 | 24.6 | > 100 | 33.1 | 33.7 | 68 | > 100
21 | CCN(CC)c1ccc2cc(C(=O)Nc3ccc(C)cc3)c(=N)oc2c1 | > 100 | > 100 | > 100 | > 100 | > 100 |  | > 100 | > 100 | > 100 | > 100
22 | COc1ccc2nc3n(c2c1)C(=O)c1ccccc1-3 | > 100 |  |  | > 100 | > 100 | > 100 | > 100 | > 100 | > 100 | > 100
23 | COc1ccc(C(=O)N/N=C/c2c(C)n(C)n(-c3ccccc3)c2=O)cc1 | > 100 |  | > 100 | > 100 | > 100 | > 100 | > 100 |  | > 100 | 
24 | CC(CN(C)C)C(=O)c1ccccc1 (centres undefined) | > 84.7 |  | 31.7 | > 100 | > 56.5 | > 31.6 | 85 |  | 6.87 | 
25 | CCn1c2c(c3ccccc31)C(c1ccccc1)CC1C(=O)N(c3ccccc3)C(=O)C21 (centres undefined) | > 100 |  | > 100 |  | > 100 | > 100 | > 100 |  | 75.7 | 
